Laboratory results taken from PubChem BioAssay (NCI).
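At the GI50, growth is halved. At the TGI there is no net growth.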

What was measured:
Assay in all cases: growth of human tumour cells (NCI), 384-well format
RPMI-8226 leukemia = tested on: RPMI-8226 leukemia
HCT-116 colon = tested on: HCT-116 colon
T-47D breast = tested on: T-47D breast
NCI/ADR-RES ovarian = tested on: NCI/ADR-RES ovarian
UACC-257 melanoma = tested on: UACC-257 melanoma
LOX IMVI melanoma = tested on: LOX IMVI melanoma
DU-145 prostate = tested on: DU-145 prostate
A549 NSCLC = tested on: A549 NSCLC
M14 melanoma = tested on: M14 melanoma
NCI-H460 NSCLC = tested on: NCI-H460 NSCLC
A498 renal = tested on: A498 renal
IGROV1 ovarian = tested on: IGROV1 ovarian
SF-539 CNS = tested on: SF-539 CNS
U251 glioblastoma = tested on: U251 glioblastoma
HL-60(TB) leukemia = tested on: HL-60(TB) leukemia
UACC-62 melanoma = tested on: UACC-62 melanoma
COLO 205 colon = tested on: COLO 205 colon
SF-268 CNS = tested on: SF-268 CNS
HS 578T breast = tested on: HS 578T breast
ACHN renal = tested on: ACHN renal
HCC-2998 colon = tested on: HCC-2998 colon
MDA-MB-468 breast = tested on: MDA-MB-468 breast
MDA-MB-231 breast = tested on: MDA-MB-231 breast
HOP-62 NSCLC = tested on: HOP-62 NSCLC
TK-10 renal = tested on: TK-10 renal
NCI-H322M lung = tested on: NCI-H322M lung
MDA-MB-435 melanoma = tested on: MDA-MB-435 melanoma
RXF 393 renal = tested on: RXF 393 renal
HCT-15 colon = tested on: HCT-15 colon
SNB-19 CNS = tested on: SNB-19 CNS
MCF7 breast = tested on: MCF7 breast
MALME-3M melanoma = tested on: MALME-3M melanoma
NCI-H522 lung = tested on: NCI-H522 lung
HT29 colon = tested on: HT29 colon
BT-549 breast = tested on: BT-549 breast
KM12 colon = tested on: KM12 colon
SK-MEL-2 melanoma = tested on: SK-MEL-2 melanoma
OVCAR-8 ovarian = tested on: OVCAR-8 ovarian
HOP-92 NSCLC = tested on: HOP-92 NSCLC
786-0 renal = tested on: 786-0 renal
EKVX NSCLC = tested on: EKVX NSCLC
SN12C renal = tested on: SN12C renal
SK-MEL-5 melanoma = tested on: SK-MEL-5 melanoma
SW-620 colon = tested on: SW-620 colon
MOLT-4 leukemia = tested on: MOLT-4 leukemia
OVCAR-5 ovarian = tested on: OVCAR-5 ovarian
OVCAR-3 ovarian = tested on: OVCAR-3 ovarian

CC1(N)CCN(c2cccnc2NC(=O)c2nc(-c3ncccc3C(F)(F)F)cnc2N)CC1
GI50 (RPMI-8226 leukemia): 10.4 µM
TGI (RPMI-8226 leukemia): 32.8 µM
GI50 (HCT-116 colon): 11.6 µM
TGI (HCT-116 colon): 26 µM
GI50 (T-47D breast): 11.6 µM
TGI (T-47D breast): 26.9 µM
GI50 (NCI/ADR-RES ovarian): > 100 µM
TGI (NCI/ADR-RES ovarian): > 100 µM
GI50 (UACC-257 melanoma): 7.77 µM
TGI (UACC-257 melanoma): 20.8 µM
GI50 (LOX IMVI melanoma): 19 µM
TGI (LOX IMVI melanoma): 33.6 µM
GI50 (DU-145 prostate): 19.3 µM
TGI (DU-145 prostate): > 58.8 µM
GI50 (A549 NSCLC): 25 µM
TGI (A549 NSCLC): > 65 µM
GI50 (M14 melanoma): 20.3 µM
TGI (M14 melanoma): 40.3 µM
GI50 (NCI-H460 NSCLC): 17.6 µM
TGI (NCI-H460 NSCLC): 32.4 µM
GI50 (A498 renal): 8.29 µM
TGI (A498 renal): 22.8 µM
GI50 (IGROV1 ovarian): 3.28 µM
TGI (IGROV1 ovarian): 15 µM
GI50 (SF-539 CNS): 24 µM
TGI (SF-539 CNS): > 51.2 µM
GI50 (U251 glioblastoma): 13.6 µM
TGI (U251 glioblastoma): 30.5 µM
GI50 (HL-60(TB) leukemia): 7.32 µM
TGI (HL-60(TB) leukemia): 18 µM
GI50 (UACC-62 melanoma): 19.4 µM
TGI (UACC-62 melanoma): > 53.4 µM
GI50 (COLO 205 colon): 17.9 µM
TGI (COLO 205 colon): > 54.6 µM
GI50 (SF-268 CNS): 19.9 µM
TGI (SF-268 CNS): 47 µM
GI50 (HS 578T breast): 15.9 µM
TGI (HS 578T breast): 33.2 µM
GI50 (ACHN renal): 22.7 µM
TGI (ACHN renal): > 94.7 µM
GI50 (HCC-2998 colon): 17.9 µM
TGI (HCC-2998 colon): 33.4 µM
GI50 (MDA-MB-468 breast): 13.6 µM
TGI (MDA-MB-468 breast): 28.2 µM
GI50 (MDA-MB-231 breast): 20.5 µM
TGI (MDA-MB-231 breast): 46.9 µM
GI50 (HOP-62 NSCLC): 28.8 µM
TGI (HOP-62 NSCLC): > 77.6 µM
GI50 (TK-10 renal): 7.5 µM
TGI (TK-10 renal): 26.1 µM
GI50 (NCI-H322M lung): 23.7 µM
TGI (NCI-H322M lung): > 60 µM
GI50 (MDA-MB-435 melanoma): > 56.1 µM
TGI (MDA-MB-435 melanoma): > 100 µM
GI50 (RXF 393 renal): 12.5 µM
TGI (RXF 393 renal): 25.5 µM
GI50 (HCT-15 colon): 20.7 µM
TGI (HCT-15 colon): 56.3 µM
GI50 (SNB-19 CNS): 27.8 µM
TGI (SNB-19 CNS): > 76.7 µM
GI50 (MCF7 breast): 24.6 µM
TGI (MCF7 breast): > 54.9 µM
GI50 (MALME-3M melanoma): 14.8 µM
TGI (MALME-3M melanoma): 28.1 µM
GI50 (NCI-H522 lung): 4.86 µM
TGI (NCI-H522 lung): 18.8 µM
GI50 (HT29 colon): 17.2 µM
TGI (HT29 colon): > 58.8 µM
GI50 (BT-549 breast): 8.16 µM
TGI (BT-549 breast): 20.6 µM
GI50 (KM12 colon): 0.308 µM
TGI (KM12 colon): 20.2 µM
GI50 (SK-MEL-2 melanoma): 18.4 µM
TGI (SK-MEL-2 melanoma): 47.2 µM
GI50 (OVCAR-8 ovarian): 30.9 µM
TGI (OVCAR-8 ovarian): > 70.5 µM
GI50 (HOP-92 NSCLC): 20.4 µM
TGI (HOP-92 NSCLC): 57.6 µM
GI50 (786-0 renal): 8.25 µM
TGI (786-0 renal): 24 µM
GI50 (EKVX NSCLC): 7.15 µM
TGI (EKVX NSCLC): 38.9 µM
GI50 (SN12C renal): 21 µM
TGI (SN12C renal): 56.8 µM
GI50 (SK-MEL-5 melanoma): 18.2 µM
TGI (SK-MEL-5 melanoma): 34.3 µM
GI50 (SW-620 colon): 19.3 µM
TGI (SW-620 colon): 60.6 µM
GI50 (MOLT-4 leukemia): 12.8 µM
TGI (MOLT-4 leukemia): 25.6 µM
GI50 (OVCAR-5 ovarian): 16.8 µM
TGI (OVCAR-5 ovarian): 48.1 µM
GI50 (OVCAR-3 ovarian): 15.1 µM
TGI (OVCAR-3 ovarian): 44.5 µM
